Several values for one entry are separate records, joined by “and”; a condition that tells them apart may be missing. Equal entries are not always repeated.
Experiments:
MDA-MB-231 [1] = conditions: incubation time: 72 h
Method: (§1)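 MDA-MB-231 breast cancer cells were transfected with siBRCA1 or non-targeting siControl, then seeded 24 h later at 4000 cells/well in 384-well plates holding 198 drugs at 5 concentrations. Viability was read by CellTiter-Blue after 72 h at 37 °C. Dose-response curves were fitted in Dotmatics to give IC50 and a drug sensitivity score (DSS: area under the curve relative to the area between the 10% threshold and 100% inhibition, normalised by the log of the top response). The dose range is not stated. IC50 values of 8333.3 or 4166.7 nM mark no response (top dose), and 0.8333 nM is the lower limit.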

MDA-MB-231 [2] = assay: drug sensitivity score (DSS); higher = more sensitive; extreme values may be limits of the assay; conditions: incubation time: 72 h
Method: as §1

[3] = siRNA: siControl (non-targeting)

SMILES | IC50 of cell viability (MDA-MB-231 [1]; siRNA: siBRCA1) | IC50 of cell viability (MDA-MB-231 [1]; [3]) [nM] | drug sensitivity score (MDA-MB-231 [2]; siRNA: siBRCA1) | drug sensitivity score (MDA-MB-231 [2]; [3])
Nc1ccccc1NC(=O)c1ccc(CNC(=O)OCc2cccnc2)cc1 [Entinostat] | > 4170 nM | > 4170 | 0 | 2.12
CC(C)(C#N)c1cc(Cn2cncn2)cc(C(C)(C)C#N)c1 [Anastrozole] | > 4170 nM | > 4170 | 0 | 0
O=C(Nc1ccncc1)C(=O)c1cn(Cc2ccc(Cl)cc2)c2ccccc12 [Indibulin] | 753 nM | 632 | 7.58 | 7.93
CNNCc1ccc(C(=O)NC(C)C)cc1 [Procarbazine] | > 4170 nM | > 4170 | 0 | 0
CS(=O)(=O)OCCCCOS(C)(=O)=O [Busulfan] | > 4170 nM | > 4170 | 0 | 0
CNCc1ccc(-c2[nH]c3cc(F)cc4c3c2CCNC4=O)cc1 | > 4170 nM | > 4170 | 0 | 0
CS(=O)(=O)c1ccc(C(=O)Nc2ccc(Cl)c(-c3ccccn3)c2)c(Cl)c1 [Vismodegib] | > 4170 nM | > 4170 | 0 | 0
CN(Cc1cnc2nc(N)nc(N)c2n1)c1ccc(C(=O)N[C@@H](CCC(=O)O)C(=O)O)cc1 [Methotrexate] | > 4170 nM | 4.32 | 0 | 9.3
O=S(=O)(c1cccc2cnccc12)N1CCCNCC1 [Fasudil] | > 4170 nM | > 4170 | 0 | 0
CC[C@]1(O)C[C@H]2CN(CCc3c([nH]c4ccccc34)[C@@](C(=O)OC)(c3cc4c(cc3OC)N(C=O)[C@H]3[C@@](O)(C(=O)OC)[C@H](OC(C)=O)[C@]5(CC)C=CCN6CC[C@]43[C@@H]65)C2)C1 [Vincristine] | 5.32 nM | 3.55 | 31.3 | 32.2
c1ccc2c(CCNc3ccc(Nc4ccncc4)cc3)c[nH]c2c1 [Serdemetan] | > 4170 nM | 2560 | 4.84 | 6.59
CO[C@H]1C[C@@H]2CC[C@@H](C)[C@@](O)(O2)C(=O)C(=O)N2CCCC[C@H]2C(=O)O[C@H]([C@H](C)C[C@@H]2CC[C@@H](OCCO)[C@H](OC)C2)CC(=O)[C@H](C)/C=C(\C)[C@@H](O)[C@@H](OC)C(=O)[C@H](C)C[C@H](C)/C=C/C=C/C=C/1C [Everolimus] | 1.12 nM and < 0.833 nM | < 0.833 | 19.8 and 16.9 | 21.1 and 21.8
CNC(=O)c1cc(Oc2ccc(NC(=O)Nc3ccc(Cl)c(C(F)(F)F)c3)c(F)c2)ccn1 [BAY 73-4506] | 900 nM | 813 | 4.52 | 2.71
NC(=O)Nc1cc(-c2cccc(F)c2)sc1C(=O)N[C@H]1CCCNC1 [AZD 7762] | 242 nM | 582 | 17.4 | 13.7
COc1cccc2cc(-c3nc([C@H]4CC[C@H](C(=O)O)CC4)n4ncnc(N)c34)[nH]c12 [OSI-027] | 973 nM | 1080 | 7.16 | 7.26
O=C(O)C1(C(=O)O)CCC1.[NH2-].[NH2-].[Pt+2] [Carboplatin] | > 4170 nM | > 4170 | 0 | 0
CCCCCOC(=O)Nc1nc(=O)n([C@@H]2O[C@H](C)[C@@H](O)[C@H]2O)cc1F [Capecitabine] | > 4170 nM | > 4170 | 0 | 0
COc1cc2ncnc(Nc3ccc(F)c(Cl)c3)c2cc1OCCCN1CCOCC1 [Gefitinib] | > 4170 nM | > 4170 | 0 | 0
CCc1c2c(nc3ccc(OC(=O)N4CCC(N5CCCCC5)CC4)cc13)-c1cc3c(c(=O)n1C2)COC(=O)[C@]3(O)CC [Irinotecan] | 760 nM | 576 | 6.18 | 3.11

SMILES | IC50 of cell viability (MDA-MB-231 [1]; siRNA: siBRCA1) | IC50 of cell viability (MDA-MB-231 [1]; [3]) [nM] | drug sensitivity score (MDA-MB-231 [2]; siRNA: siBRCA1) | drug sensitivity score (MDA-MB-231 [2]; [3])
CC/C(=C(\c1ccccc1)c1ccc(OCCN(C)C)cc1)c1ccccc1 [Tamoxifen] | > 4170 nM | > 4170 | 0 | 0
Cc1ccc(C(=O)Nc2ccc(CN3CCN(C)CC3)c(C(F)(F)F)c2)cc1C#Cc1cnc2cccnn12 [Ponatinib] | 297 nM | 363 | 16 | 15.4
CO[C@H]1/C=C\C=C(/C)C(=O)NC2=CC(=O)C(NCCN(C)C)=C(C[C@@H](C)C[C@H](OC)[C@H](O)[C@@H](C)/C=C(\C)[C@@H]1OC(N)=O)C2=O [Alvespimycin] | 128 nM | 75.7 | 20 | 22.7
O=c1[nH]c(=O)n([C@H]2C[C@H](O)[C@@H](CO)O2)cc1F [Floxuridine] | 748 nM | 291 | 8.85 | 11.5
CN[C@@H]1C[C@H]2O[C@@](C)([C@@H]1OC)n1c3ccccc3c3c4c(c5c6ccccc6n2c5c31)C(=O)N[C@H]4O [UCN-01] | 66.8 nM | 28.9 | 23.4 | 27.8
C[C@@H]1C[C@H]2[C@@H]3CCC4=CC(=O)C=C[C@]4(C)[C@@]3(F)[C@@H](O)C[C@]2(C)[C@@]1(O)C(=O)CO [Dexamethasone] | > 4170 nM | > 4170 | 0 | 0
C/C(=C\c1csc(C)n1)[C@@H]1C[C@@H]2O[C@]2(C)CCC[C@H](C)[C@H](O)[C@@H](C)C(=O)C(C)(C)[C@@H](O)CC(=O)O1 [Epothilone B (Patupilone)] | 29.4 nM | 29.1 | 23.4 | 23.6
C/C(=C\c1csc(C)n1)[C@@H]1C[C@@H]2O[C@]2(C)CCC[C@H](C)[C@H](O)[C@@H](C)C(=O)C(C)(C)[C@@H](O)CC(=O)N1 [Ixabepilone] | 249 nM | 251 | 14.8 | 16.2
CC(C)C[C@H](NC(=O)[C@@H](COC(C)(C)C)NC(=O)[C@H](Cc1ccc(O)cc1)NC(=O)[C@H](CO)NC(=O)[C@H](Cc1c[nH]c2ccccc12)NC(=O)[C@H](Cc1cnc[nH]1)NC(=O)[C@@H]1CCC(=O)N1)C(=O)N[C@@H](CCCNC(=N)N)C(=O)N1CCC[C@H]1C(=O)NNC(N)=O [Goserelin] | > 4170 nM | > 4170 | 0 | 0
C#Cc1cccc(Nc2ncnc3cc(OCCOC)c(OCCOC)cc23)c1 [Erlotinib] | > 4170 nM | > 4170 | 0 | 0
COc1cc2c(cc1O)CC[C@@H]1[C@@H]2CC[C@]2(C)[C@@H](O)CC[C@@H]12 [2-methoxyestradiol] | 1230 nM | 794 | 6.82 | 8.29
CN(C)C/C=C/C(=O)Nc1cc2c(Nc3ccc(F)c(Cl)c3)ncnc2cc1O[C@H]1CCOC1 [Afatinib] | 3350 nM | 1680 | 4.43 | 8.65
COc1cc2c(Oc3ccc(NC(=O)C4(C(=O)Nc5ccc(F)cc5)CC4)cc3F)ccnc2cc1OCCCN1CCOCC1 [Foretinib] | 503 nM | 585 | 13.6 | 12.8
O=C1CN2Cc3c(ccc(Cl)c3Cl)N=C2N1 [Anagrelide] | > 4170 nM | > 4170 | 0 | 0
O=C(c1ccc(OCCN2CCCCC2)cc1)c1c(-c2ccc(O)cc2)sc2cc(O)ccc12 [Raloxifene] | > 4170 nM | > 4170 | 0 | 0
CN(N=O)C(=O)N[C@@H](C=O)[C@@H](O)[C@H](O)[C@H](O)CO [Streptozocin] | > 4170 nM | > 4170 | 0 | 0
O=C(c1cc(Cc2n[nH]c(=O)c3ccccc23)ccc1F)N1CCN(C(=O)C2CC2)CC1 [Olaparib] | > 4170 nM | > 4170 | 0 | 0
CC[C@@]1(O)C(=O)OCc2c1cc1n(c2=O)Cc2cc3ccccc3nc2-1 [Camptothecin] | 45.6 nM | 328 | 16.9 | 10.9
OC[C@H]1O[C@@H](n2cnc3c2N=CNC[C@H]3O)C[C@@H]1O [Pentostatin] | > 4170 nM | > 4170 | 0 | 0
